ChEMBL document CHEMBL2321781, “Synthesis and in vitro antimalarial testing of neocryptolepines: SAR study for improved activity by introduction and modifications of side chains at C2 and C11 on indolo[2,3-b]quinolines” (J Med Chem, 2013)
The source made the active and inactive calls. No cut-off for these calls is given here.

Key:
Plasmodium falciparum [1] = test: microbe, parasite or virus in culture; conditions: NF54
Description: Antimalarial activity against chloroquine-sensitive Plasmodium falciparum NF54 after 72 hrs by [3H]hypoxanthine incorporation assay

[2] = Selectivity index, ratio of IC50 for rat L6 cells to IC50 for chloroquine-resistant Plasmodium falciparum K1; assay type: toxicity, cell-based; conditions: read-out: Ratio IC50
Plasmodium falciparum [3] = test: Antimalarial activity against chloroquine-resistant Plasmodium falciparum K1 after 72 hrs by [3H]hypoxanthine incorporation assay; assay type: functional, organism-based
[4] = Toxicity against rat L6 cells after 72 hrs by Alamar blue assay; assay type: cell-based
[5] = Selectivity index, ratio of IC50 for rat L6 cells to IC50 for chloroquine-sensitive Plasmodium falciparum NF54; assay type: toxicity, cell-based; conditions: read-out: Ratio IC50
Leishmania donovani = test: Antiparasitic activity against Leishmania donovani MHOM/ET/67/L82 axenic amastigotes after 70 hrs by Alamar blue assay; assay type: functional, organism-based; conditions: MHOM/ET/67/L82, 70 h
Trypanosoma cruzi = test: Antiparasitic activity against Trypanosoma cruzi Tulahuen C2C4 expressing beta-galactosidase infected in rat L6 cells after 96 hrs; assay type: functional, organism-based; conditions: Tulahuen C2C4, L6, 96 h
[6] = test system: Trypanosoma brucei rhodesiense; test: Antiparasitic activity against Trypanosoma brucei rhodesiense STIB900 bloodstream forms incubated for 70 hrs by Alamar blue assay; assay type: functional, organism-based; conditions: STIB900, 70 h
Plasmodium berghei = test: Antimalarial activity against Plasmodium berghei ANKA infected in Swiss mouse assessed as reduction parasitaemia at 50 mg/kg, ip qd for 4 days measured 24 hrs after last treatment; assay type: functional
Mus musculus = test: Toxicity in Plasmodium berghei ANKA infected Swiss mouse assessed as weight loss at 50 mg/kg, ip qd for 4 days; assay type: organism-based; design: dose 50 mg/kg, route intraperitoneal; conditions: in vivo, 96 h

| SMILES | IC50 (Plasmodium falciparum [1]) [nM] | selectivity ratio [2] | IC50 (Plasmodium falciparum [3]) [nM] | IC50 at 72 h [4] [nM] | selectivity ratio [5] | IC50 (Leishmania donovani) [nM] | IC50 (Trypanosoma cruzi) [nM] | IC50 [6] [nM] | Activity (Plasmodium berghei) | Activity (Mus musculus) | Activity (Plasmodium berghei; route intraperitoneal) [%] |
| --- | --- | --- | --- | --- | --- | --- | --- | --- | --- | --- | --- |
| Cn1c2nc3ccccc3c-2c(NCCCN)c2ccccc21 | 78.8 | 9.4 | 29.6 | 279 | 3.5 | – | – | – | – | – | – |
| COc1ccc2c(c1)c(NCCCN)c1c3ccccc3nc-1n2C | 74.8 | – | – | 383 | 5.1 | – | – | – | – | – | – |
| CCCCNC(=O)NCCCNc1c2c3ccccc3nc-2n(C)c2ccccc12 | 104 | – | – | 1740 | 16.7 | – | – | – | – | – | – |
| C[C@@H]1CC[C@H]2[C@@H](C)C(=O)O[C@@H]3O[C@@]4(C)CC[C@@H]1[C@]32OO4 [ARTEMISININ] | 4.3 | – | 2.8 | – | – | – | – | – | – | – | – |
| CCCCCCCCCCCCCCCCOP(=O)([O-])OCC[N+](C)(C)C [MILTEFOSINE] | – | – | – | – | – | 361 | – | – | – | – | – |
| Cn1c2nc3ccccc3c-2c(NCCCN2C(=O)CCSC2c2ccc(F)cc2)c2ccccc21 (stereo unspecified) | 38.1 | 24.3 | 112 | 2730 | 71.6 | – | – | – | – | – | – |
| Cn1c2nc3ccccc3c-2c(NCCCN)c2cc(Br)ccc21 | 10.4 | – | – | 258 | 24.8 | – | – | – | – | – | – |
| Cn1c2nc3ccccc3c-2c(NCCCN2C(=O)c3ccccc3SC2c2ccc(Cl)cc2)c2ccccc21 (stereo unspecified) | 26.6 | 51.6 | 21.3 | 1100 | 41.3 | 9750 | 2360 | 868 | – | – | – |
| Cn1c2nc3ccccc3c-2c(NCCCCCCN)c2ccccc21 | 98.1 | – | – | 693 | 7.1 | – | – | – | – | – | – |
| Cn1c2nc3ccccc3c-2c(NCCCNS(=O)(=O)c2ccccc2)c2ccccc21 | 63 | 0.5 | 124 | 65.2 | 1 | 58000 | 1600 | 164 | – | – | – |
| Cn1c2nc3ccccc3c-2c(NCCCNC(=O)Nc2ccccc2)c2cc(Br)ccc21 | 4 | 238 | 11.9 | 2830 | 706 | – | – | – | – | – | – |
| Cn1c2nc3ccccc3c-2cc2ccccc21 [NEOCRYPTOLEPINE] | 1580 | 1.9 | 1700 | 3190 | 2 | – | – | – | – | – | – |
| Cn1c2nc3ccccc3c-2c(NCCCNC(=O)c2cccs2)c2ccccc21 | 258 | – | – | 4460 | 17.3 | – | – | – | – | – | – |
| Cn1c2nc3ccccc3c-2c(NCCCN)c2cc(C(F)(F)F)ccc21 | 10.7 | – | – | 924 | 86.3 | – | – | – | – | – | – |
| Cn1c2nc3ccccc3c-2c(NCCCNC(=O)Nc2ccccc2)c2cc([N+](=O)[O-])ccc21 | 2.1 | 91.4 | 29.9 | 2730 | 1300 | – | – | – | – | – | – |
| Cn1c2nc3ccccc3c-2c(NCCCNC(=O)Nc2ccccc2)c2cc(F)ccc21 | 24.9 | 11.4 | 313 | 3560 | 143 | – | – | – | – | – | – |

| SMILES | IC50 (Plasmodium falciparum [1]) [nM] | selectivity ratio [2] | IC50 (Plasmodium falciparum [3]) [nM] | IC50 at 72 h [4] [nM] | selectivity ratio [5] | IC50 (Leishmania donovani) [nM] | IC50 (Trypanosoma cruzi) [nM] | IC50 [6] [nM] | Activity (Plasmodium berghei) | Activity (Mus musculus) | Activity (Plasmodium berghei; route intraperitoneal) [%] |
| --- | --- | --- | --- | --- | --- | --- | --- | --- | --- | --- | --- |
| Cn1c2nc3ccccc3c-2c(NCCCNS(=O)(=O)c2ccc3ccccc3c2)c2ccccc21 | 14.2 | – | – | 18.2 | 1.3 | – | – | – | – | – | – |
| Cn1c2nc3ccccc3c-2c(NCCCN)c2cc([N+](=O)[O-])ccc21 | 11.4 | – | – | 209 | 18.3 | – | – | – | – | – | – |
| Cn1c2nc3ccccc3c-2c(NCCCN2C(=O)CSC2c2ccc(Cl)cc2)c2ccccc21 (stereo unspecified) | 63.9 | 24.2 | 144 | 3470 | 54.4 | – | – | – | – | – | – |
| Cn1c2nc3ccccc3c-2c(NCCCNC(=O)Nc2ccccc2)c2cc(Cl)ccc21 | 2.2 | 141 | 21.8 | 3080 | 1400 | – | – | – | inactive | Toxic | – |
| Cn1c2nc3ccccc3c-2c(NCCCNC(=O)Nc2ccccc2)c2ccccc21 | 21.3 | 132 | 9.4 | 1240 | 58.4 | 97500 | 10600 | 607 | – | Toxic | 22.1 |
| Cn1c2nc3ccccc3c-2c(Cl)c2ccccc21 [11-CHLORONEOCRYPTOLEPINE] | 2060 | 0.7 | 2000 | 1460 | 0.7 | – | – | – | – | – | – |
| Cn1c2nc3ccccc3c-2c(NCCCN)c2cc(Cl)ccc21 | 11.8 | – | – | 269 | 22.8 | – | – | – | – | – | – |
| Cn1c2nc3ccccc3c-2c(NCCCN)c2cc(F)ccc21 | 49.6 | – | – | 338 | 6.8 | – | – | – | – | – | – |
| Cn1c2nc3ccccc3c-2c(NCCCNC(=O)Nc2ccccc2)c2cc(C(F)(F)F)ccc21 | 4.1 | 26.3 | 48.8 | 1280 | 313 | – | – | – | – | – | – |
| Cn1c2nc3ccccc3c-2c(NCCCN2C(=O)CCSC2c2ccc(Cl)cc2)c2ccccc21 (stereo unspecified) | 52.4 | 86.6 | 38.8 | 3360 | 64.1 | 13000 | 3180 | 548 | – | – | – |
| CN(C)c1ccc(C2SCC(=O)N2CCCNc2c3c4ccccc4nc-3n(C)c3ccccc23)cc1 (stereo unspecified) | 54.9 | 24.8 | 143 | 3550 | 64.7 | 26100 | 2730 | 1370 | – | – | – |
| Cn1c2nc3ccccc3c-2c(NCCCNC(=S)Nc2ccccc2)c2ccccc21 | 9.1 | 11 | 112 | 1230 | 135 | 79200 | 6120 | 589 | – | Toxic | 15.4 |
| Cn1c2nc3ccccc3c-2c(NCCCCCCNC(=O)Nc2ccccc2)c2ccccc21 | 25.8 | – | – | 397 | 15.4 | – | – | – | – | – | – |
| COc1ccc2c(c1)c(NCCCNC(=O)Nc1ccccc1)c1c3ccccc3nc-1n2C | 4.4 | 1240 | 2.2 | 2730 | 621 | – | – | – | – | – | – |
| O=C(Cn1ccnc1[N+](=O)[O-])NCc1ccccc1 [BENZNIDAZOLE] | – | – | – | – | – | – | 1610 | – | – | – | – |
